According to ChEMBL document CHEMBL1201862, “PubChem BioAssay data set” (2004):
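48-hour exposure; five concentrations; linearly interpolated endpoints. At the GI50, growth is halved.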 Activity calls are given as the source filed them. No stated cut-off is given here; in the data, active = GI50 up to about 1.1 µM and inactive = higher.

Tests used:
Experiment in all cases: NCI anticancer screen, dose series, 48 h
786-0 = system: 786-0
A498 = system: A498
A549 = system: A549
ACHN = system: ACHN
BT-549 = system: BT-549
CAKI-1 = system: CAKI-1
CCRF-CEM = system: CCRF-CEM
COLO 205 = system: COLO 205
DU-145 = system: DU-145
EKVX = system: EKVX
HCC 2998 = system: HCC 2998
HCT-116 = system: HCT-116
HCT-15 = system: HCT-15
HOP-62 = system: HOP-62
HT-29 = system: HT-29
K562 = system: K562
KM12 = system: KM12
M14 = system: M14
MCF7 = system: MCF7
MDA-MB-231 = system: MDA-MB-231
MDA-MB-435 = system: MDA-MB-435
MDA-N = system: MDA-N
MOLT-4 = system: MOLT-4
Malme-3M = system: Malme-3M
NCI-H226 = system: NCI-H226
NCI-H23 = system: NCI-H23
NCI-H460 = system: NCI-H460
NCI/ADR-RES = system: NCI/ADR-RES
OVCAR-3 = system: OVCAR-3
OVCAR-4 = system: OVCAR-4
OVCAR-5 = system: OVCAR-5
OVCAR-8 = system: OVCAR-8
PC-3 = system: PC-3
RPMI-8226 = system: RPMI-8226
RXF 393 = system: RXF 393
SF-268 = system: SF-268
SF-295 = system: SF-295
SF-539 = system: SF-539
SK-MEL-28 = system: SK-MEL-28
SK-MEL-2 = system: SK-MEL-2
SK-OV-3 = system: SK-OV-3
SN12C = system: SN12C
SNB-19 = system: SNB-19
SNB-75 = system: SNB-75
SW-620 = system: SW-620
T47D = system: T47D
U-251 = system: U-251
UACC-257 = system: UACC-257
UACC-62 = system: UACC-62
UO-31 = system: UO-31
IGROV-1 = system: IGROV-1
LOX IMVI = system: LOX IMVI
NCI-H522 = system: NCI-H522
SK-MEL-5 = system: SK-MEL-5
SR = system: SR
TK-10 = system: TK-10
HL-60 = system: HL-60
Hs-578T = system: Hs-578T

Structure (SMILES): CCOC(CI)O[C@@H]1C=C[C@H](OC(C)=O)C1 (stereo partly drawn)
- GI50 (786-0): > 100 µM (inactive)
- GI50 (A498): > 100 µM (inactive)
- GI50 (A549): > 100 µM (inactive)
- GI50 (ACHN): > 100 µM (inactive)
- GI50 (BT-549): > 100 µM (inactive)
- GI50 (CAKI-1): 60.7 µM (inactive)
- GI50 (CCRF-CEM): > 100 µM (inactive)
- GI50 (COLO 205): > 100 µM (inactive)
- GI50 (DU-145): > 100 µM (inactive)
- GI50 (EKVX): > 100 µM (inactive)
- GI50 (HCC 2998): > 100 µM (inactive)
- GI50 (HCT-116): > 100 µM (inactive)
- GI50 (HCT-15): > 100 µM
- GI50 (HOP-62): 84.7 µM (inactive)
- GI50 (HT-29): > 100 µM (inactive)
- GI50 (K562): > 100 µM (inactive)
- GI50 (KM12): 30.1 µM (inactive)
- GI50 (M14): > 100 µM (inactive)
- GI50 (MCF7): > 100 µM (inactive)
- GI50 (MDA-MB-231): > 100 µM (inactive)
- GI50 (MDA-MB-435): > 100 µM (inactive)
- GI50 (MDA-N): > 100 µM (inactive)
- GI50 (MOLT-4): > 100 µM (inactive)
- GI50 (Malme-3M): > 100 µM (inactive)
- GI50 (NCI-H226): > 100 µM (inactive)
- GI50 (NCI-H23): > 100 µM (inactive)
- GI50 (NCI-H460): > 100 µM (inactive)
- GI50 (NCI/ADR-RES): > 100 µM (inactive)
- GI50 (OVCAR-3): 33.7 µM (inactive)
- GI50 (OVCAR-4): > 100 µM (inactive)
- GI50 (OVCAR-5): > 100 µM (inactive)
- GI50 (OVCAR-8): > 100 µM (inactive)
- GI50 (PC-3): > 100 µM (inactive)
- GI50 (RPMI-8226): > 100 µM (inactive)
- GI50 (RXF 393): > 100 µM (inactive)
- GI50 (SF-268): > 100 µM (inactive)
- GI50 (SF-295): > 100 µM (inactive)
- GI50 (SF-539): > 100 µM (inactive)
- GI50 (SK-MEL-28): > 100 µM (inactive)
- GI50 (SK-MEL-2): > 100 µM (inactive)
- GI50 (SK-OV-3): > 100 µM (inactive)
- GI50 (SN12C): > 100 µM (inactive)
- GI50 (SNB-19): > 100 µM (inactive)
- GI50 (SNB-75): > 100 µM (inactive)
- GI50 (SW-620): > 100 µM (inactive)
- GI50 (T47D): > 100 µM (inactive)
- GI50 (U-251): > 100 µM (inactive)
- GI50 (UACC-257): > 100 µM (inactive)
- GI50 (UACC-62): > 100 µM (inactive)
- GI50 (UO-31): > 100 µM (inactive)

Structure (SMILES): COc1cccc2c1OC1c3ccccc3OCC1C2 (stereo not drawn)
- GI50 (786-0): > 100 µM (inactive)
- GI50 (A498): > 100 µM (inactive)
- GI50 (A549): > 100 µM (inactive)
- GI50 (BT-549): 62.2 µM (inactive)
- GI50 (CAKI-1): > 100 µM (inactive)
- GI50 (CCRF-CEM): 42.8 µM (inactive)
- GI50 (COLO 205): > 100 µM (inactive)
- GI50 (DU-145): > 100 µM (inactive)
- GI50 (EKVX): 44.2 µM (inactive)
- GI50 (HCC 2998): > 100 µM (inactive)
- GI50 (HCT-116): 74.6 µM (inactive)
- GI50 (HCT-15): > 100 µM
- GI50 (HOP-62): > 100 µM (inactive)
- GI50 (HT-29): > 100 µM (inactive)
- GI50 (IGROV-1): 41.1 µM (inactive)
- GI50 (K562): > 100 µM (inactive)
- GI50 (KM12): > 100 µM (inactive)
- GI50 (LOX IMVI): > 100 µM (inactive)
- GI50 (M14): > 100 µM (inactive)
- GI50 (MCF7): > 100 µM (inactive)
- GI50 (MDA-MB-231): > 100 µM (inactive)
- GI50 (MDA-MB-435): > 100 µM (inactive)
- GI50 (MDA-N): > 100 µM (inactive)
- GI50 (MOLT-4): 96.2 µM (inactive)
- GI50 (Malme-3M): > 100 µM (inactive)
- GI50 (NCI-H226): > 100 µM (inactive)
- GI50 (NCI-H23): > 100 µM (inactive)
- GI50 (NCI-H522): > 10 µM (inactive)
- GI50 (NCI/ADR-RES): 34.6 µM (inactive)
- GI50 (OVCAR-3): > 100 µM (inactive)
- GI50 (OVCAR-5): > 100 µM (inactive)
- GI50 (OVCAR-8): > 100 µM (inactive)
- GI50 (PC-3): 82.6 µM (inactive)
- GI50 (RPMI-8226): > 100 µM (inactive)
- GI50 (SF-268): > 100 µM (inactive)
- GI50 (SF-295): > 100 µM (inactive)
- GI50 (SF-539): > 100 µM (inactive)
- GI50 (SK-MEL-2): > 100 µM (inactive)
- GI50 (SK-MEL-5): 35.7 µM (inactive)
- GI50 (SK-OV-3): > 100 µM (inactive)
- GI50 (SN12C): > 100 µM (inactive)
- GI50 (SNB-75): < 0.01 µM (active)
- GI50 (SR): > 100 µM (inactive)
- GI50 (SW-620): > 100 µM (inactive)
- GI50 (T47D): 44.1 µM (inactive)
- GI50 (TK-10): 43.9 µM (inactive)
- GI50 (U-251): > 100 µM (inactive)
- GI50 (UACC-257): 83.6 µM (inactive)
- GI50 (UACC-62): > 100 µM (inactive)
- GI50 (UO-31): 48 µM (inactive)

Structure (SMILES): C/C=C/[C@@]1(OC(=O)c2ccccc2)C[C@@H]2CCCC[C@@H]21
- GI50 (786-0): 17.7 µM (inactive)
- GI50 (A549): 18.5 µM (inactive)
- GI50 (ACHN): 17.7 µM (inactive)
- GI50 (BT-549): 14.9 µM (inactive)
- GI50 (CAKI-1): 17.6 µM (inactive)
- GI50 (CCRF-CEM): 18.3 µM (inactive)
- GI50 (DU-145): 17.5 µM (inactive)
- GI50 (EKVX): 16.7 µM (inactive)
- GI50 (HCC 2998): 21.1 µM (inactive)
- GI50 (HCT-116): 16 µM (inactive)
- GI50 (HCT-15): 19.5 µM
- GI50 (HL-60): 14 µM (inactive)
- GI50 (HOP-62): 15.5 µM (inactive)
- GI50 (HT-29): 16.3 µM (inactive)
- GI50 (Hs-578T): 13.8 µM (inactive)
- GI50 (IGROV-1): 17 µM (inactive)
- GI50 (K562): 19.8 µM (inactive)
- GI50 (KM12): 17.4 µM (inactive)
- GI50 (LOX IMVI): 21.9 µM (inactive)
- GI50 (M14): 17.9 µM (inactive)
- GI50 (MCF7): 18.9 µM (inactive)
- GI50 (MDA-MB-231): 20.6 µM (inactive)
- GI50 (MDA-N): 17.4 µM (inactive)
- GI50 (MOLT-4): 17.9 µM (inactive)
- GI50 (Malme-3M): 17.5 µM (inactive)
- GI50 (NCI-H226): 16.5 µM (inactive)
- GI50 (NCI-H23): 16.5 µM (inactive)
- GI50 (NCI-H460): 18.4 µM (inactive)
- GI50 (NCI-H522): 15.7 µM (inactive)
- GI50 (NCI/ADR-RES): 20.5 µM (inactive)
- GI50 (OVCAR-4): 17 µM (inactive)
- GI50 (OVCAR-5): 17.1 µM (inactive)
- GI50 (OVCAR-8): 18.5 µM (inactive)
- GI50 (PC-3): 20 µM (inactive)
- GI50 (RPMI-8226): 16.6 µM (inactive)
- GI50 (SF-268): 17.1 µM (inactive)
- GI50 (SF-295): 18.6 µM (inactive)
- GI50 (SF-539): 17.5 µM (inactive)
- GI50 (SK-MEL-28): 17.9 µM (inactive)
- GI50 (SK-MEL-2): 13.2 µM (inactive)
- GI50 (SK-MEL-5): 15.9 µM (inactive)
- GI50 (SK-OV-3): 18.5 µM (inactive)
- GI50 (SN12C): 17.5 µM (inactive)
- GI50 (SNB-19): 17.3 µM (inactive)
- GI50 (SNB-75): 14.2 µM (inactive)
- GI50 (SR): 18.1 µM (inactive)
- GI50 (SW-620): 23 µM (inactive)
- GI50 (T47D): 18.6 µM (inactive)
- GI50 (TK-10): 15 µM (inactive)
- GI50 (U-251): 16.3 µM (inactive)
- GI50 (UACC-257): 18.3 µM (inactive)
- GI50 (UACC-62): 16.7 µM (inactive)
- GI50 (UO-31): 11 µM (inactive)
